Laboratory results taken from patent US8815881B2 (Hoffmann-La Roche Inc., priority 2010, dated 2014).

Molecular target: endogenous cellular BACE2 in the Ins1e rat cell line (Rattus norvegicus (Rat), UniProt Q6IE75)
Assay: Assay for BACE inhibition by measuring cellular TMEM27 cleavage (ELISA of shed hTMEM27 from INS-TMEM27 cells)
Type: cell-based
Conditions: assay a): cellular TMEM27 cleavage, INS-TMEM27 cells (superscript a)
Description: a) Assay for BACE Inhibition by Measuring Cellular TMEM27 Cleavage:
The assay uses the principle of inhibition of human TMEM27 cleavage by endogenous cellular BACE2 in the Ins1e rat cell line and shedding from the cell surface into the culture medium, followed by detection in an ELISA assay. Inhibition of BACE2 prevents the cleavage and shedding in a dose-dependent manner.
The stable cell line “INS-TMEM27” represents an INS1e-derived cell line with inducible expression (using the TetOn system) of full-length hTMEM27 in a doxycycline-dependent manner. The cells are cultured throughout the experiment in RPMI1640+Glutamax (Invitrogen) Penicillin/Streptomycin, 10% Fetal bovine serum, […], […], 100 micrograms/ml G418 and 100 microgram/ml hygromycin and are grown inadherent culture at 37° C. in a standard CO2 cell culture incubator.
INS-TMEM27 cells are seeded in 96-well plates. After 2 days in culture, BACE2 inhibitor is added in a range of concentrations as required by the assay and after a further two hours, doxycycline is added to a final concentration of 500 ng/ml. The cells are incubated for a further 46 hours and the supernatant harvested for detection of shed TMEM27.
An ELISA assay (using a pair of mouse anti-human-TMEM27 antibodies, raised against the extracellular domain of TMEM27) is used for detection of TMEM27 in the culture medium. An EC50 for BACE2 inhibition is calculated using the ELISA readout for each inhibitor concentration with standard curve-fitting software such as XLFit for the Excel spreadsheet program.

endogenous cellular BACE2 in the Ins1e rat cell line, sequence (Q6IE75 63-514): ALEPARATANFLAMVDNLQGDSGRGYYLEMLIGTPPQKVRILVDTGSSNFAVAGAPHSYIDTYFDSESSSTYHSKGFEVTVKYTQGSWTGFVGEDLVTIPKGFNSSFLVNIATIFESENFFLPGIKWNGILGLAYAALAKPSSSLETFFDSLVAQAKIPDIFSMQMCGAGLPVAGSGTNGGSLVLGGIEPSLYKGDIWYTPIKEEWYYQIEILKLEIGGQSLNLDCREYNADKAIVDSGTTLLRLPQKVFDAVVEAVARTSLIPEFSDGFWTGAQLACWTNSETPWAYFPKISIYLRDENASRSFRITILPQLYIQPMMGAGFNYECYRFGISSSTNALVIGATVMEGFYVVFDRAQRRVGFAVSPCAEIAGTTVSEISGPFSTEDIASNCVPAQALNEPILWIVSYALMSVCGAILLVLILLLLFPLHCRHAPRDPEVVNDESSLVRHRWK

Row | IC50 [nM] | Structure (SMILES)
1 | 211 | CN1C(=O)C(C)(C)[C@@](C)(c2cc(NC3CCN(Cc4ccccc4)CC3)ccc2F)N=C1N [Example 43, (S)-2-Amino-6-[5-(1-benzyl-piperidin-4-ylamino)-2-fluoro-phenyl]-3,5,5,6-tetramethyl-5,6-dihydro-3H-pyrimidin-4-one]
2 | 45 | CN1C(=O)C(C)(C)[C@@](C)(c2cc(NC3CCCN(Cc4ccccc4)C3)ccc2F)N=C1N (stereo partly drawn) [Example 44, (S)-2-Amino-6-[5-(1-benzyl-piperidin-3-ylamino)-2-fluoro-phenyl]-3,5,5,6-tetramethyl-5,6-dihydro-3H-pyrimidin-4-one]
3 | 11 | CN1C(=O)C(C)(C)[C@@](C)(c2cc(NC3CCCOC3)ccc2F)N=C1N (stereo partly drawn) [Example 45, (S)-2-Amino-6-[2-fluoro-5-(tetrahydro-pyran-3-ylamino)-phenyl]-3,5,5,6-tetramethyl-5,6-dihydro-3H-pyrimidin-4-one]
4 | 109 | Cc1ccc2c(c1)C(Nc1ccc(F)c([C@@]3(C)N=C(N)N(C)C(=O)C3(C)C)c1)CC2(C)C (stereo partly drawn) [Example 46, (S)-2-Amino-6-[2-fluoro-5-(3,3,6-trimethyl-indan-1-ylamino)-phenyl]-3,5,5,6-tetramethyl-5,6-dihydro-3H-pyrimidin-4-one]
5 | 217 | COc1cccc2c1CCC2Nc1ccc(F)c([C@@]2(C)N=C(N)N(C)C(=O)C2(C)C)c1 (stereo partly drawn) [Example 47, (S)-2-Amino-6-[2-fluoro-5-(4-methoxy-indan-1-ylamino)-phenyl]-3,5,5,6-tetramethyl-5,6-dihydro-3H-pyrimidin-4-one]
6 | 42 | CN1C(=O)C(C)(C)[C@@](C)(c2cc(Nc3ccccc3)ccc2F)N=C1N [Example 48, (S)-2-amino-6-(2-fluoro-5-(phenylamino)phenyl)-3,5,5,6-tetramethyl-5,6-dihydropyrimidin-4(3H)-one]
7 | 321 | CN1C(=O)C(C)(C)[C@@](C)(c2cc(NC3CCc4cccc(Cl)c43)ccc2F)N=C1N (stereo partly drawn) [Example 49, (S)-2-Amino-6-[5-(7-chloro-indan-1-ylamino)-2-fluoro-phenyl]-3,5,5,6-tetramethyl-5,6-dihydro-3H-pyrimidin-4-one]
8 | 21.8 | CN1C(=O)C(C)(C)[C@@](C)(c2cc(NC3CCOCC3)ccc2F)N=C1N [Example 50, (S)-2-Amino-6-[2-fluoro-5-(tetrahydro-pyran-4-ylamino)-phenyl]-3,5,5,6-tetramethyl-5,6-dihydro-3H-pyrimidin-4-one]
9 | 73 | CN1C(=O)C(C)(C)[C@@](C)(c2cc(NC3COc4ccccc43)ccc2F)N=C1N (stereo partly drawn) [Example 51, (6S)-2-amino-6-(5-(2,3-dihydrobenzofuran-3-ylamino)-2-fluorophenyl)-3,5,5,6-tetramethyl-5,6-dihydropyrimidin-4(3H)-one]
10 | 7 | CN1C(=O)C(C)(C)[C@@](C)(c2cc(NCC3CC3)ccc2F)N=C1N [Example 52, (S)-2-Amino-6-(5-(C-cyclopropylmethylamino)-2-fluorophenyl)-3,5,5,6-tetramethyl-5,6-dihydropyrimidin-4(3H)-one]
11 | 153 | CN1C(=O)C(C)(C)[C@@](C)(c2cc(NCC3(c4ccccc4)CC3)ccc2F)N=C1N [Example 53, (S)-2-Amino-6-{2-fluoro-5-[(1-phenyl-cyclopropylmethyl)-amino]-phenyl}-3,5,5,6-tetramethyl-5,6-dihydro-3H-pyrimidin-4-one]
12 | 76 | CN1C(=O)C(C)(C)[C@@](C)(c2cc(NCCC(F)(F)F)ccc2F)N=C1N [Example 54, (S)-2-Amino-6-(2-fluoro-5-(3,3,3-trifluoropropylamino)phenyl)-3,5,5,6-tetramethyl-5,6-dihydropyrimidin-4(3H)-one]
13 | 115 | Cc1ccccc1Nc1ccc(F)c([C@@]2(C)N=C(N)N(C)C(=O)C2(C)C)c1 [Example 55, (S)-2-Amino-6-(2-fluoro-5-(o-tolylamino)phenyl)-3,5,5,6-tetramethyl-5,6-dihydro-pyrimidin-4(3H)-one]
14 | 15 | COc1ccccc1Nc1ccc(F)c([C@@]2(C)N=C(N)N(C)C(=O)C2(C)C)c1 [Example 56, (S)-2-Amino-6-(2-fluoro-5-(2-methoxyphenylamino)phenyl)-3,5,5,6-tetramethyl-5,6-dihydropyrimidin-4(3H)-one]
15 | 10 | CN1C(=O)C(C)(C)[C@@](C)(c2cc(NCC3CC3(F)F)ccc2F)N=C1N (stereo partly drawn) [Example 58, (S)-2-Amino-6-{5-[(2,2-difluoro-cyclopropylmethyl)-amino]-2-fluoro-phenyl}-3,5,5,6-tetramethyl-5,6-dihydro-3H-pyrimidin-4-one]
16 | 59 | CN1C(=O)C(C)(C)[C@@](C)(c2cc(NCc3cc[nH]n3)ccc2F)N=C1N [Example 61, (S)-2-Amino-6-{2-fluoro-5-[(1H-pyrazol-3-ylmethyl)-amino]-phenyl}-3,5,5,6-tetramethyl-5,6-dihydro-3H-pyrimidin-4-one]
17 | 1 | CN1C(=O)C(C)(C)[C@@](C)(c2cc(NC3CCc4cc(Cl)cnc43)ccc2F)N=C1N (stereo partly drawn) [Example 62, (6S)-2-Amino-6-(5-(3-chloro-6,7-dihydro-5H-cyclopenta[b]pyridin-7-ylamino)-2-fluorophenyl)-3,5,5,6-tetramethyl-5,6-dihydropyrimidin-4(3H)-one]
18 | 21 | CN1C(=O)C(C)(C)[C@@](C)(c2cc(NC3CCc4cccc(F)c43)ccc2F)N=C1N (stereo partly drawn) [Example 63, (6S)-2-Amino-6-(2-fluoro-5-(7-fluoro-2,3-dihydro-1H-inden-1-ylamino)phenyl)-3,5,5,6-tetramethyl-5,6-dihydropyrimidin-4(3H)-one]
19 | 3 | CN1C(=O)C(C)(C)[C@@](C)(c2cc(NCC3(C)CC3(F)F)ccc2F)N=C1N (stereo partly drawn) [Example 68, (S)-2-Amino-6-{5-[(2,2-difluoro-1-methyl-cyclopropylmethyl)-amino]-2-fluoro-phenyl}-3,5,5,6-tetramethyl-5,6-dihydro-3H-pyrimidin-4-one]
20 | 16 | CN1C(=O)C(C)(C)[C@@](C)(c2cc(NCC3CCC3)ccc2F)N=C1N [Example 70, (S)-2-Amino-6-[5-(C-cyclobutylmethyl-amino)-2-fluoro-phenyl]-3,5,5,6-tetramethyl-5,6-dihydro-3H-pyrimidin-4-one]
21 | 14 | CN1C(=O)C(C)(C)[C@@](C)(c2cc(NCC3(C)COC3)ccc2F)N=C1N [Example 71, (S)-2-Amino-6-{2-fluoro-5-[(3-methyl-oxetan-3-ylmethyl)-amino]-phenyl}-3,5,5,6-tetramethyl-5,6-dihydro-3H-pyrimidin-4-one]
22 | 201 | COc1ccc(Nc2ccc(F)c([C@@]3(C)N=C(N)N(C)C(=O)C3(C)C)c2)cc1 [Example 72, (S)-2-Amino-6-(2-fluoro-5-(4-methoxyphenylamino)phenyl)-3,5,5,6-tetramethyl-5,6-dihydropyrimidin-4(3H)-one]
23 | 135 | CN1C(=O)C(C)(C)[C@@](C)(c2cc(Nc3ccccc3OC(F)F)ccc2F)N=C1N [Example 73, (S)-2-Amino-6-(5-(2-(difluoromethoxy)phenylamino)-2-fluorophenyl)-3,5,5,6-tetramethyl-5,6-dihydropyrimidin-4(3H)-one]
24 | 76 | CN1C(=O)C(C)(C)[C@@](C)(c2cc(Nc3ccccc3OC(F)(F)F)ccc2F)N=C1N [Example 74, (S)-2-Amino-6-(2-fluoro-5-(2-(trifluoromethoxy)phenylamino)phenyl)-3,5,5,6-tetramethyl-5,6-dihydropyrimidin-4(3H)-one]
